Results as given in ChEMBL document CHEMBL5113403, “Design, synthesis, and biological evaluation of novel pyrazolo [3,4-d]pyrimidine derivatives as potent PLK4 inhibitors for the treatment of TRIM37-amplified breast cancer” (Eur J Med Chem, 2022).
pIC50: −log10 of the molar value.

How the values were obtained:
[1] = target: T1, Serine/threonine-protein kinase PLK4 (Homo sapiens, UniProt O00444); experiment: Inhibition of recombinant human PLK4 incubated for 60 mins by Lanthascreen Eu kinase binding assay
T1 sequence (O00444 whole entry): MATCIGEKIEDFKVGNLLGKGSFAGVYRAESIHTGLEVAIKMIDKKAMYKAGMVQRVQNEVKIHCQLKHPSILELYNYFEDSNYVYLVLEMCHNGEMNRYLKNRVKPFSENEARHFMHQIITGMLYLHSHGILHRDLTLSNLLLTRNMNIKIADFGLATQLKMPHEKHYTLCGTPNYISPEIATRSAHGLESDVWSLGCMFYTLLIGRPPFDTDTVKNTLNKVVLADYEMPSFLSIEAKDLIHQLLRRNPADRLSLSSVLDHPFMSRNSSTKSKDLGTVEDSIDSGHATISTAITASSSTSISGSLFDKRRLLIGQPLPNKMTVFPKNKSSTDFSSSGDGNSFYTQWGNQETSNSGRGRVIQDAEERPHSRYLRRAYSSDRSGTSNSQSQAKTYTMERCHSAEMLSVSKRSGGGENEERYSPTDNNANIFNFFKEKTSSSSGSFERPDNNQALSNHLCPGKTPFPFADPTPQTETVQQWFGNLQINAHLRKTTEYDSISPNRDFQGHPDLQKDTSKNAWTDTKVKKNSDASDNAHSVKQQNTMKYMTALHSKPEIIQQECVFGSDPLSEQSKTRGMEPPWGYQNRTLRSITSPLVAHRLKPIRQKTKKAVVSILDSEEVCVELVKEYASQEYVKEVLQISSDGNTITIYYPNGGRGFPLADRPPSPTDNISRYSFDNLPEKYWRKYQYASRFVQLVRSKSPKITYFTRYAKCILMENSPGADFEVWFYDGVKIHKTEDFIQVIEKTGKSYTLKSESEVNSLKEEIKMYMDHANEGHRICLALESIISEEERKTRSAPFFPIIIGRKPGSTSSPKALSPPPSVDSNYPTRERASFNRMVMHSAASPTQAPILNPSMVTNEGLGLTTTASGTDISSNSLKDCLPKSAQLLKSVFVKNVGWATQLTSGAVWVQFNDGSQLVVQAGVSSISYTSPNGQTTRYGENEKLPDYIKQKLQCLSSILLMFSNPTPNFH

[2] = target: T2, Serine/threonine-protein kinase PAK 4 (Homo sapiens, UniProt O96013); experiment: Inhibition of PAK4 (unknown origin) incubated for 60 mins by time-resolved HTRF assay
T2 sequence (O96013 whole entry): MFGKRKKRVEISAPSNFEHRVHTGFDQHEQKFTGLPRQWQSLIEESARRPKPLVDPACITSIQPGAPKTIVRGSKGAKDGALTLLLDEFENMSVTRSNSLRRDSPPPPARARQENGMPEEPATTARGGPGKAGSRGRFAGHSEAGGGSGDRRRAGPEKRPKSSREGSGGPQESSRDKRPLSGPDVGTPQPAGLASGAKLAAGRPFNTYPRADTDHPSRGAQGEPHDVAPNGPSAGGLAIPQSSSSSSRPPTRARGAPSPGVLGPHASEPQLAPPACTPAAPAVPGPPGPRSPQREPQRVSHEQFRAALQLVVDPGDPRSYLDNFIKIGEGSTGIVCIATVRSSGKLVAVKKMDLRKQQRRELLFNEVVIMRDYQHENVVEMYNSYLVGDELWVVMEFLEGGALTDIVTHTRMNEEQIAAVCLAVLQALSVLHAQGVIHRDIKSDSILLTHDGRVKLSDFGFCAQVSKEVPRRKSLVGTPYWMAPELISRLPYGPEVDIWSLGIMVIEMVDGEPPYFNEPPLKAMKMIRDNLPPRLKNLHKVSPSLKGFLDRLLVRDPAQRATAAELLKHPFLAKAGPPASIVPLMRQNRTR

MCF7 = experiment: Antiproliferative activity against human MCF7 cells assessed as cell growth inhibition incubated for 5 days by MTT assay; assay type: functional, cell-based; settings: MCF7, 120 h
BT-474 = experiment: Antiproliferative activity against human BT-474 cells assessed as cell growth inhibition incubated for 5 days by MTT assay; assay type: functional, cell-based; settings: BT-474, 120 h
MDA-MB-231 = experiment: Antiproliferative activity against human MDA-MB-231 cells assessed as cell growth inhibition incubated for 5 days by MTT assay; assay type: functional, cell-based; settings: MDA-MB-231, 120 h
[3] = target: T1, Serine/threonine-protein kinase PLK4; experiment: Inhibition of PLK4 (unknown origin)
[4] = target: T3, Serine/threonine-protein kinase PLK4 (Homo sapiens) (UniProt O00444); experiment: Inhibition of PLK4 (unknown origin) at 2 uM relative to control
T3 sequence (whole entry): T1 sequence (O00444 whole entry)

[5] = target: T2, Serine/threonine-protein kinase PAK 4; experiment: Inhibition of PAK4 (unknown origin) using S2 as substrate incubated for 60 mins in the presence of ATP by time-resolved HTRF assay
CYP2C9 = CYP2C9 (Homo sapiens, UniProt P11712); experiment: Inhibition of CYP2C9 in human liver microsomes at 10 uM preincubated for 10 mins followed by addition of NADPH-regenerating system and measured after 15 mins by LC-MS/MS analysis relative to control; assay type: ADME, Microsome; settings: time 25 min
CYP2C9, sequence (P11712 whole entry): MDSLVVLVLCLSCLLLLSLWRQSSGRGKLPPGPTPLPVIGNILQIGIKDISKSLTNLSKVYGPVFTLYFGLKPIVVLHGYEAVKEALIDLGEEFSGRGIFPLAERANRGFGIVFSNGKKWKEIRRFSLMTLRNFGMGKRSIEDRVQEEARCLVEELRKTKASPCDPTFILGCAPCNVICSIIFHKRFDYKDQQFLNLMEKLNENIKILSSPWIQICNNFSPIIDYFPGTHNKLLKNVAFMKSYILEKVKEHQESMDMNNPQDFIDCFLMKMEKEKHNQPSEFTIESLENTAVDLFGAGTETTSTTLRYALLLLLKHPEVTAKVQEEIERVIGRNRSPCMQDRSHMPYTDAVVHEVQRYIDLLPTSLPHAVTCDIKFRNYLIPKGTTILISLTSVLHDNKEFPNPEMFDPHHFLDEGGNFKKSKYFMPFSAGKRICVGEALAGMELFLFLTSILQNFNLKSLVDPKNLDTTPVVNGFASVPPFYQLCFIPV

CYP2D6 = CYP2D6 (Homo sapiens, UniProt P10635); experiment: Inhibition of CYP2D6 in human liver microsomes at 10 uM preincubated for 10 mins followed by addition of NADPH-regenerating system and measured after 15 mins by LC-MS/MS analysis relative to control; assay type: ADME, Microsome; settings: time 25 min
CYP2D6, sequence (P10635 whole entry): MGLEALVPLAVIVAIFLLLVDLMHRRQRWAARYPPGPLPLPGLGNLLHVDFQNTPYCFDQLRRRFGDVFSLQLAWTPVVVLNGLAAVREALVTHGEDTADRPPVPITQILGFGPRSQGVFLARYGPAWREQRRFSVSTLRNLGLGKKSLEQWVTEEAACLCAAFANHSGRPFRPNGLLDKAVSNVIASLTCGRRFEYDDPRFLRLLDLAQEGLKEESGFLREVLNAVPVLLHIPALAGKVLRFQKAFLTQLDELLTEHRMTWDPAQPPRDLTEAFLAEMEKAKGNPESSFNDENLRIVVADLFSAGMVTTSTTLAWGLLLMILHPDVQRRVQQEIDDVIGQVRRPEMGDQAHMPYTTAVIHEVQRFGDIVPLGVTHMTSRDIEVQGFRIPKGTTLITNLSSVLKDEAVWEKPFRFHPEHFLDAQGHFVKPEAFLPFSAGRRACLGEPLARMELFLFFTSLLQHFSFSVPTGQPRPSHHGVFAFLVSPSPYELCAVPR

Compound | pIC50 [1] | pIC50 [2] | pIC50 (MCF7) | pIC50 (BT-474) | pIC50 (MDA-MB-231) | other results
Cc1cc(Nc2nc(NCc3ccc(F)cc3F)nc3c2cnn3C)n[nH]1 | 7.76 | – | – | – | – | –
Cc1cc(Nc2nc(NC3CCNC3)nc3[nH]ncc23)n[nH]1 (configuration not stated) | 6.34 | 5.98 | – | – | – | –
Cc1cc(Nc2nc(NCc3ccc(F)cc3F)nc3c2cnn3C2CCCCC2)n[nH]1 | 8.10 | – | 6.09 | 5.21 | 5.53 | –
Cc1cc(Nc2nc(Cl)nc3[nH]ncc23)n[nH]1 | 6.31 | 5.23 | – | – | – | –
Fc1ccc(CNc2nc(Nc3cc(C4CC4)[nH]n3)c3cnn(C4CCOCC4)c3n2)c(F)c1 | 8.74 | – | 5.61 | 5.14 | 5.59 | –
Cc1cc(Nc2nc(NCc3ccc(Cl)cc3)nc3c2cnn3C2CCCCC2)n[nH]1 | 7.32 | – | – | – | – | –
Cc1cc(Nc2nc(NCc3ccc(F)cc3F)nc3c2cnn3C2CCNCC2)n[nH]1 | 9.15 | 6.64 | 6.39 | 5.53 | 5.97 | –
Cc1cc(Nc2cc(Cc3ccccc3)nc(NC3CCNCC3)n2)n[nH]1 | – | – | – | – | – | pIC50 [3]: 6.45; inhibition [4]: 58.4%; pIC50 [5]: 8.23
Fc1ccc(CNc2nc(Nc3n[nH]c4ccccc34)c3cnn(C4CCOCC4)c3n2)c(F)c1 | 6.27 | – | – | – | – | –
CC(C)(C)c1cc(Nc2nc(NCc3ccc(F)cc3F)nc3c2cnn3C2CCOCC2)n[nH]1 | 6.14 | – | – | – | – | –
Cc1cc(Nc2nc(N3CCNCC3)nc3[nH]ncc23)n[nH]1 | 6.27 | 5.82 | – | – | – | –
Cc1cc(Nc2nc(NCc3ccc(Cl)cc3)nc3c2cnn3-c2ccc(F)cc2)n[nH]1 | 6.62 | – | – | – | – | –
Cc1cc(Nc2nc(NCc3c(F)cc(F)cc3F)nc3[nH]ncc23)n[nH]1 | 7.11 | – | – | – | – | –
Cc1cc(Nc2nc(NCc3ccc(F)cc3F)nc3c2cnn3CC(C)(C)O)n[nH]1 | 8.57 | 6.18 | 6.80 | 4.71 | 5.60 | –
Cc1cc(Nc2nc(NCc3ccc(F)cc3)nc3[nH]ncc23)n[nH]1 | 9.10 | 6.40 | 6.01 | 5.06 | 5.08 | –
Fc1ccc(CNc2nc(Nc3cc(-c4ccccc4)[nH]n3)c3cnn(C4CCOCC4)c3n2)c(F)c1 | 6.01 | – | – | – | – | –
Cc1cc(Nc2nc(NCc3ccccc3)nc3[nH]ncc23)n[nH]1 | 7.67 | 5.71 | – | – | – | –
Cc1cc(Nc2nc(NCc3ccc(F)c(F)c3)nc3[nH]ncc23)n[nH]1 | 7.65 | – | – | – | – | –
Cc1cc(Nc2nc(NCc3cccc(Cl)c3)nc3[nH]ncc23)n[nH]1 | 8.26 | 6.21 | 5.25 | 4.89 | 5.16 | –
Cc1cc(Nc2nc(NCc3ccc(F)cc3F)nc3[nH]ncc23)n[nH]1 | 10.00 | 7.02 | 6.17 | 5.49 | 5.57 | –
Cc1cc(Nc2nc(Nc3ccccc3)nc3[nH]ncc23)n[nH]1 | 6.69 | 5.23 | – | – | – | –
Cc1cc(Nc2nc(NCc3ccccc3Cl)nc3[nH]ncc23)n[nH]1 | 9.15 | 6.18 | 5.38 | 5.15 | 5.38 | –
Cc1cc(Nc2nc(NC3CCNCC3)nc3[nH]ncc23)n[nH]1 | 6.32 | 6.56 | – | – | – | –

Compound | pIC50 [1] | pIC50 [2] | pIC50 (MCF7) | pIC50 (BT-474) | pIC50 (MDA-MB-231) | other results
Cc1cc(Nc2nc(NCc3ccc(Br)cc3)nc3[nH]ncc23)n[nH]1 | 8.25 | 5.88 | 5.27 | 5.39 | 5.73 | –
Nc1ccc(S(=O)(=O)Nc2ccnn2-c2ccccc2)cc1 [SULFAPHENAZOLE] | – | – | – | – | – | inhibition at 0.25 h, 10 µM (CYP2C9): 81.4%
Cc1cc(Nc2nc(NCc3ccc(C#N)cc3)nc3[nH]ncc23)n[nH]1 | 7.98 | – | 5.22 | 4.92 | 5.87 | –
COc1ccc(CNc2nc(Nc3cc(C)[nH]n3)c3cn[nH]c3n2)cc1 | 8.19 | – | 5.48 | 5.08 | 5.88 | –
COc1c(Nc2cc(C)[nH]n2)nc(Sc2ccc(S(=O)(=O)Cc3cccc([N+](=O)[O-])c3F)cc2F)nc1N1CCOCC1 | – | – | 5.64 | 4.98 | 5.06 | –
Fc1ccc(CNc2nc(Nc3n[nH]c4ccc(Cl)cc34)c3cnn(C4CCOCC4)c3n2)c(F)c1 | 5.50 | – | – | – | – | –
Cc1cc(Nc2nc(NCc3ccccc3F)nc3[nH]ncc23)n[nH]1 | 9.00 | 6.41 | 5.64 | 4.88 | 5.01 | –
Cc1cc(Nc2nc(NCc3ccc(Cl)cc3)nc3[nH]ncc23)n[nH]1 | 9.52 | 6.29 | 6.07 | 4.93 | 5.12 | –
C=C[C@H]1C[N@@]2CC[C@H]1C[C@@H]2[C@@H](O)c1ccnc2ccc(OC)cc12 [QUINIDINE] | – | – | – | – | – | inhibition at 0.25 h, 10 µM (CYP2D6): 95.9%
Cc1cc(Nc2nc(NCc3cccc(F)c3)nc3[nH]ncc23)n[nH]1 | 7.84 | 6.34 | – | – | – | –
Cc1cc(Nc2nc(NCc3ccc(Cl)cc3)nc3c2cnn3C(C)C)n[nH]1 | 8.43 | – | 5.69 | 4.89 | 5.31 | –
Cc1cc(Nc2nc(NCc3ccc(Cl)cc3)nc3c2cnn3C2CCNCC2)n[nH]1 | 8.15 | – | 6.10 | 5.63 | 5.49 | –
Cc1cc(Nc2nc(NCc3ccc(F)cc3F)nc3c2cnn3C(C)C)n[nH]1 | 8.96 | – | 5.36 | 4.76 | 5.27 | –
Cc1cc(Nc2nc(NCc3ccc(Cl)cc3)nc3c2cnn3C)n[nH]1 | 7.69 | – | – | – | – | –
Cc1cc(Nc2nc(NCc3ccc(Cl)cc3)nc3c2cnn3CC(F)(F)F)n[nH]1 | 6.93 | – | – | – | – | –
Cc1cc(Nc2nc(NCc3cccc(Br)c3)nc3[nH]ncc23)n[nH]1 | 7.63 | 5.36 | – | – | – | –
Cc1cc(Nc2nc(NCc3ccc(Cl)cc3)nc3c2cnn3C2CCOCC2)n[nH]1 | 8.40 | – | 5.81 | 4.74 | 5.03 | –
Cc1cnc(Nc2nc(NCc3ccc(F)cc3F)nc3c2cnn3C2CCOCC2)s1 | 7.68 | – | – | – | – | –
Cc1cc(Nc2nc(NCc3ccccc3Br)nc3[nH]ncc23)n[nH]1 | 8.06 | 5.96 | 4.85 | 5.00 | 5.40 | –
Fc1ccc(-c2cc(Nc3nc(NCc4ccc(F)cc4F)nc4c3cnn4C3CCOCC3)n[nH]2)cc1 | 5.89 | – | – | – | – | –
Cc1cc(Nc2nc(NCc3ccc(Cl)cc3)nc3c2cnn3CC(C)(C)O)n[nH]1 | 8.42 | – | 5.71 | 4.79 | 5.40 | –
CCc1cc(Nc2nc(NCc3ccc(F)cc3F)nc3c2cnn3C2CCOCC2)n[nH]1 | 9.15 | – | 5.75 | 5.51 | 5.55 | –
